From paper PMC11864979, “First-in-class ultralong-target-residence-time p38α inhibitors as a mitosis-targeted therapy for colorectal cancer” (Nature Cancer, 2025)
Read-outs that look alike come from different tables or passages of the source.

Columns and labels:
Test in all cases: selectivity profiling in a panel of 340 wild-type kinases (Reaction Biology Europe)
Type in all cases: binding
340 wild-type kinases [1] = target: T1, 340 wild-type kinases (Homo sapiens, UniProt O00444)
T1 construct: purchased Reaction Biology Europe
T1 sequence (O00444 1-970): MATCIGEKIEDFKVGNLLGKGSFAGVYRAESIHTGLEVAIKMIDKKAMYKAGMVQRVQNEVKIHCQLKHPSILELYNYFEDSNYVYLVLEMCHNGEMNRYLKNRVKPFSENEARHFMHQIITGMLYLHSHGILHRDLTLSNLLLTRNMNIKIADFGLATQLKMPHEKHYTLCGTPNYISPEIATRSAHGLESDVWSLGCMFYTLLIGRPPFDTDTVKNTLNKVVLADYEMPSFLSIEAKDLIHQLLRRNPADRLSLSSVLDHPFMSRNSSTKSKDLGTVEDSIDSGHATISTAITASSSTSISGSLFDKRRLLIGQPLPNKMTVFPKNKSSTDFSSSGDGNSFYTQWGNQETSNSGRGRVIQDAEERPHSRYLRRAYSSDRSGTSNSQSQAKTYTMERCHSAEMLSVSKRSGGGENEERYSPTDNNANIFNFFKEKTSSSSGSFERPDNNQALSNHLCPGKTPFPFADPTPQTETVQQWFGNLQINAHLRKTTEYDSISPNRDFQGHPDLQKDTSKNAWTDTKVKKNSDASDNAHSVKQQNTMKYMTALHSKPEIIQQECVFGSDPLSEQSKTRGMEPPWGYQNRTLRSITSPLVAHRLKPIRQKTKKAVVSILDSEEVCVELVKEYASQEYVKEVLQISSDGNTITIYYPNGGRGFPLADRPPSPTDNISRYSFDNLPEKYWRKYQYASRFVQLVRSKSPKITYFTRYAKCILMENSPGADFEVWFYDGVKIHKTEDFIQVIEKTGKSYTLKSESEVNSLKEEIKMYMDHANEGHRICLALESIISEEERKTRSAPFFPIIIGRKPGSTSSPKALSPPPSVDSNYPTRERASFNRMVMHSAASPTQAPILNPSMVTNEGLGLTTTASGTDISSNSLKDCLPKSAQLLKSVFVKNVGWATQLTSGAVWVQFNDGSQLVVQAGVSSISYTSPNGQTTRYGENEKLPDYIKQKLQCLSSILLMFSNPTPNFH

340 wild-type kinases [2] = target: T2, 340 wild-type kinases (Homo sapiens, UniProt P11362)
T2 construct: purchased Reaction Biology Europe

340 wild-type kinases [3] = target: T3, 340 wild-type kinases (Homo sapiens, UniProt P11802)
T3 construct: purchased Reaction Biology Europe

340 wild-type kinases [4] = target: T4, 340 wild-type kinases (Homo sapiens, UniProt P35968)
T4 construct: purchased Reaction Biology Europe

340 wild-type kinases [5] = target: T5, 340 wild-type kinases (Homo sapiens, UniProt P36894)
T5 construct: purchased Reaction Biology Europe

340 wild-type kinases [6] = target: T6, 340 wild-type kinases (Homo sapiens, UniProt P42681)
T6 construct: purchased Reaction Biology Europe
T6 sequence (P42681 1-527): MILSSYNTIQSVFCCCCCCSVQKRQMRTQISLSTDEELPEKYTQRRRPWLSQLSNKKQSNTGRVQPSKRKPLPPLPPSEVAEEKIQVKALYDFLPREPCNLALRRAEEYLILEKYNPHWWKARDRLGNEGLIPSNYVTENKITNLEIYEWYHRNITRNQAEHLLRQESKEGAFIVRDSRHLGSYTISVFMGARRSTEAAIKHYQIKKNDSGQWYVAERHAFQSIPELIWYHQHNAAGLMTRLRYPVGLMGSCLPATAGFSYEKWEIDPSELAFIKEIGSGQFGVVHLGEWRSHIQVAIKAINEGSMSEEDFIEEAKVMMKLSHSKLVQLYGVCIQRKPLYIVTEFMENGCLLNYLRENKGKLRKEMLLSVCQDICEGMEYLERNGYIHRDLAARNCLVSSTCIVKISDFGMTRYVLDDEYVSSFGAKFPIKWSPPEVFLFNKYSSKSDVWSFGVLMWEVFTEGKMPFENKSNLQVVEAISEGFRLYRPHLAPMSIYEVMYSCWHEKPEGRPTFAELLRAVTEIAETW

340 wild-type kinases [7] = target: T7, 340 wild-type kinases (Homo sapiens, UniProt P45983)
T7 construct: purchased Reaction Biology Europe

340 wild-type kinases [8] = target: T8, 340 wild-type kinases (Homo sapiens, UniProt P51617)
T8 construct: purchased Reaction Biology Europe

340 wild-type kinases [9] = target: T9, 340 wild-type kinases (Homo sapiens, UniProt Q5VT25)
T9 construct: purchased Reaction Biology Europe

340 wild-type kinases [10] = target: T10, 340 wild-type kinases (Homo sapiens, UniProt Q96GD4)
T10 construct: purchased Reaction Biology Europe

340 wild-type kinases [11] = target: T11, 340 wild-type kinases (Homo sapiens, UniProt Q9UBS0)
T11 construct: purchased Reaction Biology Europe
T11 sequence (Q9UBS0 whole entry): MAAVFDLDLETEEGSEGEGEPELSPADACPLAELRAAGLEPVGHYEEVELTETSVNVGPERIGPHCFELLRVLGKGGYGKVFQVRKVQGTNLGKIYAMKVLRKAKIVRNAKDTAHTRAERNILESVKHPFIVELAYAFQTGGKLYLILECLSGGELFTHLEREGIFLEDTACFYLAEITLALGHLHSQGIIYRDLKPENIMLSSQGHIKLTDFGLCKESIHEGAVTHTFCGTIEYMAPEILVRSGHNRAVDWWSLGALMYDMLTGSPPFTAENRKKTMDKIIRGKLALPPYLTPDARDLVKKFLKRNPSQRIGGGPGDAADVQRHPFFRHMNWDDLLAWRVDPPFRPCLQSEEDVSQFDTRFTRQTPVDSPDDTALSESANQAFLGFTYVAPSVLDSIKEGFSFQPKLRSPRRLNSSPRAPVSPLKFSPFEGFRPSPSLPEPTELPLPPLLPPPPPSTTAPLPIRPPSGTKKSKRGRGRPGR

T8 sequence (P51617 whole entry): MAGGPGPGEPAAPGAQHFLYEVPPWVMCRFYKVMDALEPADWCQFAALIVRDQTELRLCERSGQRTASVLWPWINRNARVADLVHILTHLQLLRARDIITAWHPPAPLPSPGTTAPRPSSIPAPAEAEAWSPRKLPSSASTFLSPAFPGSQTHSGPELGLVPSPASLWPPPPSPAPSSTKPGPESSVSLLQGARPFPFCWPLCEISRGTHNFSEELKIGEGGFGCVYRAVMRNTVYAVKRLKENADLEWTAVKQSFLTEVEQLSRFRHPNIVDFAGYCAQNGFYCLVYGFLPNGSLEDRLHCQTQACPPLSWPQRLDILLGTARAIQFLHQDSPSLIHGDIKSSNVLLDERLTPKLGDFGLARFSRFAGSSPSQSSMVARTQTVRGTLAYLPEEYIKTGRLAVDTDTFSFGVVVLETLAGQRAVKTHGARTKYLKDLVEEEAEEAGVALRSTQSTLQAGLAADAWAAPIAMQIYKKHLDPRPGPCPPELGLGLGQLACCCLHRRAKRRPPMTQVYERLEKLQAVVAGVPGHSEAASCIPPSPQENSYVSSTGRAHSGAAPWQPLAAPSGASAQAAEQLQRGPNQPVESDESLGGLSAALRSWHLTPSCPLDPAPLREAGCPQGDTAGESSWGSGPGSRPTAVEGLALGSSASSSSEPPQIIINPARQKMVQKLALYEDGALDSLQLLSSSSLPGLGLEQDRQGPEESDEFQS
T9 sequence (Q5VT25 whole entry): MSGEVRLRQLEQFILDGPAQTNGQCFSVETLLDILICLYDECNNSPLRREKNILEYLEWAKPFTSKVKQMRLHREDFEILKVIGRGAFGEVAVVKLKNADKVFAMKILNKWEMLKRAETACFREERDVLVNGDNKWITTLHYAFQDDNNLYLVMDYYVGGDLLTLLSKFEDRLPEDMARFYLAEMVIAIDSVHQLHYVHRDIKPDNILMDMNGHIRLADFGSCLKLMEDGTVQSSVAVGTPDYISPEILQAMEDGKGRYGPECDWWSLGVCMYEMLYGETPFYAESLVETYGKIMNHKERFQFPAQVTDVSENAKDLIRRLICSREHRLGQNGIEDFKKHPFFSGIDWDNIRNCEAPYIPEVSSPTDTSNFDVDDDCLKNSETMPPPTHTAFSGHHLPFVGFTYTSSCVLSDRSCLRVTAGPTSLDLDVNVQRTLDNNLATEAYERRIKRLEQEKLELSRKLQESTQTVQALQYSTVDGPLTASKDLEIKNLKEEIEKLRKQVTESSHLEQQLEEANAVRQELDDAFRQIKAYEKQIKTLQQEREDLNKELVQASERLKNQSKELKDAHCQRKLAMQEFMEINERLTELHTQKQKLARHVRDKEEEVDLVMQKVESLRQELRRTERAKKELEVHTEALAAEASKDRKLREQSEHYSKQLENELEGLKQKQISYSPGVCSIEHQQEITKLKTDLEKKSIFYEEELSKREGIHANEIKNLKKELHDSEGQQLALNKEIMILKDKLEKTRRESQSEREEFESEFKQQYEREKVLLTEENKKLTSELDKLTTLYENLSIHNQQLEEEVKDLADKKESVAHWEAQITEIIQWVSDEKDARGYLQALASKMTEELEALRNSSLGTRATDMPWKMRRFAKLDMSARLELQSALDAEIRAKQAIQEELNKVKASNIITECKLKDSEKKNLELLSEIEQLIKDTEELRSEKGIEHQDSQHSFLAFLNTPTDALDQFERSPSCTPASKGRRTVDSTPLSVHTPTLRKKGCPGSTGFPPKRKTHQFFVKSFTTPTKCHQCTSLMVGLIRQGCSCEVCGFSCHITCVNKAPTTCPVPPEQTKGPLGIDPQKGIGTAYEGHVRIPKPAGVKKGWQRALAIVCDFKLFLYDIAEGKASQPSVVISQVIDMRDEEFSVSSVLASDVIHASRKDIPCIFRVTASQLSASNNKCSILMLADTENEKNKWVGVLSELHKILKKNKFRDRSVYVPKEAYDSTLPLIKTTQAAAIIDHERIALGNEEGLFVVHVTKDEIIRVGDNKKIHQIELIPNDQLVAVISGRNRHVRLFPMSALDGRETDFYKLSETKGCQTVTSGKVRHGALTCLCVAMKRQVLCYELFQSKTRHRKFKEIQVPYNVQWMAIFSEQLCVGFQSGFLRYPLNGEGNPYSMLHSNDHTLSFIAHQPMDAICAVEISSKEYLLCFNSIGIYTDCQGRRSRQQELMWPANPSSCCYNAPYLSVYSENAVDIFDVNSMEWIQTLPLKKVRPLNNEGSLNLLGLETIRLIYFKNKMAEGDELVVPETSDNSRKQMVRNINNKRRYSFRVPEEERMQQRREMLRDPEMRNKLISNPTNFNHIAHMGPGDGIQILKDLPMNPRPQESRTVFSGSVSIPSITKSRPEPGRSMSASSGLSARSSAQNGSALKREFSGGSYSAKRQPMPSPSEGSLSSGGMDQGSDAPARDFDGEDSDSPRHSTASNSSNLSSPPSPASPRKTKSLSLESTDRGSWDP
T5 sequence (P36894 24-532): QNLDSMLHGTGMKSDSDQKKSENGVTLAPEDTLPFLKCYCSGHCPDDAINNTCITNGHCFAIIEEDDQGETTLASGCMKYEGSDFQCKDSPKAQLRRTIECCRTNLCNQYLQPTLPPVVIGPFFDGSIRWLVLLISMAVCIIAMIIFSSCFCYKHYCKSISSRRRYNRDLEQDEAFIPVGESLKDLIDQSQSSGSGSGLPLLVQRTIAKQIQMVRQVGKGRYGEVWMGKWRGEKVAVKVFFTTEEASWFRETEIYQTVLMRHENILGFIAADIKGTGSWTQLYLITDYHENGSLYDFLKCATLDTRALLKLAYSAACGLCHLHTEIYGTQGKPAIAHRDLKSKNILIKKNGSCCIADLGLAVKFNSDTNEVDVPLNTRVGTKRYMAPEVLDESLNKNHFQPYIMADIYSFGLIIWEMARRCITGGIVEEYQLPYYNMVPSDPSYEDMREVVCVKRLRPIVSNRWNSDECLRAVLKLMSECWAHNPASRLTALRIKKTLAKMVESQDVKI
T7 sequence (P45983 whole entry): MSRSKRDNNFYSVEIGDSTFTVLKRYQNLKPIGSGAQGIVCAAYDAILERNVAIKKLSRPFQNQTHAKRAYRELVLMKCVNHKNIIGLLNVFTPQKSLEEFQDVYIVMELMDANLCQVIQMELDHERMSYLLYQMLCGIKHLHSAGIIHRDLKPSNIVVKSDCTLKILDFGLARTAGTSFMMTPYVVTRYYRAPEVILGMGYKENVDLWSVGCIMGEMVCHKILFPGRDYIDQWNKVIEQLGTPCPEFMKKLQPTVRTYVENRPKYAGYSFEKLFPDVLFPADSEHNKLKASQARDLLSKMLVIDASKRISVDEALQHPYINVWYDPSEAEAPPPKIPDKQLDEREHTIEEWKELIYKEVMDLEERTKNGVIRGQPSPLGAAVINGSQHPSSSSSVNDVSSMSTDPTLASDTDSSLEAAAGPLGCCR
T3 sequence (P11802 whole entry): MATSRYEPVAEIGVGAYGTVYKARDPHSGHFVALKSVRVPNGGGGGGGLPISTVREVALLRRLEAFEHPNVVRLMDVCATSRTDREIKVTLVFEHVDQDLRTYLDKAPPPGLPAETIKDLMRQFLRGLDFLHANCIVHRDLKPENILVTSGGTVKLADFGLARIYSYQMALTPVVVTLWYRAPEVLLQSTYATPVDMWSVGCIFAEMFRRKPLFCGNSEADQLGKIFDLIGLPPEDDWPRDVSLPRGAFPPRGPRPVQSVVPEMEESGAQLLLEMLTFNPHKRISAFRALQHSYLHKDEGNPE
T10 sequence (Q96GD4 whole entry): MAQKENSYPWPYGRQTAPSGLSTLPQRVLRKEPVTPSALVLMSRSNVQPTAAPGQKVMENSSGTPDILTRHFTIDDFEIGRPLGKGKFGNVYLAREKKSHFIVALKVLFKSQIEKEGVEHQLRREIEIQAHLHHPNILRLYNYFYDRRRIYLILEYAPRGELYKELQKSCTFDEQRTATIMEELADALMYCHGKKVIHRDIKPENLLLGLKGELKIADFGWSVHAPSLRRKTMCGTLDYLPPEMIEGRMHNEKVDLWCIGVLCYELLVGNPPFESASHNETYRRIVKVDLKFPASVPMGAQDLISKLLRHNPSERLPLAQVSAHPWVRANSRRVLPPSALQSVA

## CNC(=O)c1ccc2c(c1)C(=O)c1ccc(Nc3ccc(F)c(NC(=O)C4CC4)c3)cc1CC2 [Compound 2015]
340 wild-type kinases [1]; 0.2 µM 2015, read-out: SAK residual activity
  remaining activity at 0.2 µM: 103%
340 wild-type kinases [1]; 1 µM 2015, read-out: SAK residual activity
  remaining activity at 1 µM: 104%
340 wild-type kinases [1]; SAK, 0.2 µM, read-out: residual activity
  remaining activity at 0.2 µM: 103%
340 wild-type kinases [1]; SAK, 1 µM, read-out: residual activity
  remaining activity at 1 µM: 104%
340 wild-type kinases [2]; 0.2 µM 2015, read-out: FGFR1 residual activity
  remaining activity at 0.2 µM: 105%
340 wild-type kinases [2]; 1 µM 2015, read-out: FGFR1 residual activity
  remaining activity at 1 µM: 111%
340 wild-type kinases [2]; FGFR1, 0.2 µM, read-out: residual activity
  remaining activity at 0.2 µM: 105%
340 wild-type kinases [2]; FGFR1, 1 µM, read-out: residual activity
  remaining activity at 1 µM: 111%
340 wild-type kinases [3]; 0.2 µM 2015, read-out: CDK4/CycD1 residual activity
  remaining activity at 0.2 µM: 117%
340 wild-type kinases [3]; 0.2 µM 2015, read-out: CDK4/CycD2 residual activity
  remaining activity at 0.2 µM: 109%
340 wild-type kinases [3]; 0.2 µM 2015, read-out: CDK4/CycD3 residual activity
  remaining activity at 0.2 µM: 70.3%
340 wild-type kinases [3]; 1 µM 2015, read-out: CDK4/CycD1 residual activity
  remaining activity at 1 µM: 98.4%
340 wild-type kinases [3]; 1 µM 2015, read-out: CDK4/CycD2 residual activity
  remaining activity at 1 µM: 103%
340 wild-type kinases [3]; 1 µM 2015, read-out: CDK4/CycD3 residual activity
  remaining activity at 1 µM: 81.7%
340 wild-type kinases [3]; CDK4/CycD1, 0.2 µM, read-out: residual activity
  remaining activity at 0.2 µM: 117%
340 wild-type kinases [3]; CDK4/CycD2, 0.2 µM, read-out: residual activity
  remaining activity at 0.2 µM: 109%
340 wild-type kinases [3]; CDK4/CycD2, 1 µM, read-out: residual activity
  remaining activity at 1 µM: 103%
340 wild-type kinases [3]; CDK4/CycD3, 0.2 µM, read-out: residual activity
  remaining activity at 0.2 µM: 70.3%
340 wild-type kinases [3]; CDK4/CycD3, 1 µM, read-out: residual activity
  remaining activity at 1 µM: 81.7%
340 wild-type kinases [4]; 0.2 µM 2015, read-out: VEGFR2 residual activity
  remaining activity at 0.2 µM: 86.7%
340 wild-type kinases [4]; 1 µM 2015, read-out: VEGFR2 residual activity
  remaining activity at 1 µM: 96.7%
340 wild-type kinases [4]; VEGFR2, 0.2 µM, read-out: residual activity
  remaining activity at 0.2 µM: 86.7%
340 wild-type kinases [4]; VEGFR2, 1 µM, read-out: residual activity
  remaining activity at 1 µM: 96.7%
340 wild-type kinases [5]; 0.2 µM 2015, read-out: BMPR1A residual activity
  remaining activity at 0.2 µM: 95.6%
340 wild-type kinases [5]; 1 µM 2015, read-out: BMPR1A residual activity
  remaining activity at 1 µM: 98.5%
340 wild-type kinases [5]; BMPR1A, 0.2 µM, read-out: residual activity
  remaining activity at 0.2 µM: 95.6%
340 wild-type kinases [5]; BMPR1A, 1 µM, read-out: residual activity
  remaining activity at 1 µM: 98.5%
340 wild-type kinases [6]; 0.2 µM 2015, read-out: TXK residual activity
  remaining activity at 0.2 µM: 94.2%
340 wild-type kinases [6]; 1 µM 2015, read-out: TXK residual activity
  remaining activity at 1 µM: 90%
340 wild-type kinases [6]; TXK, 0.2 µM, read-out: residual activity
  remaining activity at 0.2 µM: 94.2%
340 wild-type kinases [6]; TXK, 1 µM, read-out: residual activity
  remaining activity at 1 µM: 90%
340 wild-type kinases [7]; 0.2 µM 2015, read-out: JNK1 residual activity
  remaining activity at 0.2 µM: 107%
340 wild-type kinases [7]; 1 µM 2015, read-out: JNK1 residual activity
  remaining activity at 1 µM: 94.2%
340 wild-type kinases [7]; JNK1, 0.2 µM, read-out: residual activity
  remaining activity at 0.2 µM: 107%
340 wild-type kinases [7]; JNK1, 1 µM, read-out: residual activity
  remaining activity at 1 µM: 94.2%
340 wild-type kinases [8]; 0.2 µM 2015, read-out: IRAK1 residual activity
  remaining activity at 0.2 µM: 108%
340 wild-type kinases [8]; 1 µM 2015, read-out: IRAK1 residual activity
  remaining activity at 1 µM: 94.2%
340 wild-type kinases [8]; IRAK1, 0.2 µM, read-out: residual activity
  remaining activity at 0.2 µM: 108%
340 wild-type kinases [8]; IRAK1, 1 µM, read-out: residual activity
  remaining activity at 1 µM: 94.2%
340 wild-type kinases [9]; 0.2 µM 2015, read-out: CDC42BPA residual activity
  remaining activity at 0.2 µM: 118%
340 wild-type kinases [9]; 1 µM 2015, read-out: CDC42BPA residual activity
  remaining activity at 1 µM: 112%
340 wild-type kinases [9]; CDC42BPA, 0.2 µM, read-out: residual activity
  remaining activity at 0.2 µM: 118%
340 wild-type kinases [9]; CDC42BPA, 1 µM, read-out: residual activity
  remaining activity at 1 µM: 112%
340 wild-type kinases [10]; 0.2 µM 2015, read-out: AuroraB residual activity
  remaining activity at 0.2 µM: 120%
340 wild-type kinases [10]; 1 µM 2015, read-out: AuroraB residual activity
  remaining activity at 1 µM: 112%
340 wild-type kinases [10]; AuroraB, 0.2 µM, read-out: residual activity
  remaining activity at 0.2 µM: 120%
340 wild-type kinases [10]; AuroraB, 1 µM, read-out: residual activity
  remaining activity at 1 µM: 112%
340 wild-type kinases [11]; 0.2 µM 2015, read-out: S6Kbeta residual activity
  remaining activity at 0.2 µM: 108%
340 wild-type kinases [11]; 1 µM 2015, read-out: S6Kbeta residual activity
  remaining activity at 1 µM: 109%
340 wild-type kinases [11]; S6Kbeta, 0.2 µM, read-out: residual activity
  remaining activity at 0.2 µM: 108%
340 wild-type kinases [11]; S6Kbeta, 1 µM, read-out: residual activity
  remaining activity at 1 µM: 109%
